Test results taken from PMC7725003, “Systematically Studying the Optimal Amino Acid Distribution Patterns of the Amphiphilic Structure by Using the Ultrashort Amphiphiles” (Frontiers in Microbiology, 2020).
Where no end group is shown, it is not given here.

Experiments:
E. coli 25922 = format: cell-based, Escherichia coli; details: 25922, 24 h
Summary of the method: (§1)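 MIC = lowest peptide concentration giving 95% growth inhibition (A492) after 24 h at 37°C in MHB, inoculum 0.5–1 × 10^6 CFU mL^–1. Peptides serially diluted in 0.2% BSA. MBC = lowest concentration killing >99.9% of cells on overnight agar plating.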

E. coli O78 = format: cell-based, Escherichia coli; details: O78, 24 h
Summary of the method: as §1

E. coli UB1005 = format: cell-based, Escherichia coli; details: UB1005, 24 h
Summary of the method: as §1

E. coli K99 = details: for MIC: MHB, 24 h 37°C, 95% growth inhibition; for MBC: value in brackets, >99.9% of cells killed
Protocol: (§2) The antimicrobial activities of the peptides were measured using a method adapted from the National Committee for Clinical Laboratory Standards (NCCLS) with some modifications ([Chou et al., 2016]). The specific procedure for these assays has been previously described. In brief, the bacterial cells were grown to a mid-logarithmic phase and diluted in MHB to an ultimate concentration of 0.5–1 × 10^6 CFU mL^–1. Subsequently, the peptides were consecutively diluted in a 0.2% BSA solution and then added to a bacterial solution in a 96-well plate at identical volumes. After incubation for 24 h at 37°C, the MICs were determined to be the lowest peptide concentration that inhibited 95% of the bacterial growth by monitoring the absorbance at 492 nm using a microplate reader. Subsequently, 50 μL of each incubation mixture was further transferred to agar plates and incubated overnight. […] Every assay was reproduced more than 3 times.

E. coli K88 = details: for MIC: MHB, 24 h 37°C, 95% growth inhibition; for MBC: value in brackets, >99.9% of cells killed
Protocol: as §2

S. aureus 29213 [1] = experiment: Salt sensitivity assay (MIC); format: cell-based, Staphylococcus aureus; details: for MIC, FeCl3: 4 μM FeCl3; for MIC, NH4Cl: 6 μM NH4Cl; for MIC, ZnCl2: 8 μM ZnCl2; for MIC, MgCl2: 1 mM MgCl2; for MIC, CaCl2: 2 mM CaCl2; for MIC, KCl: 4.5 mM KCl; for MIC, NaCl: 150 mM NaCl; for MIC, Control: no added salt, three independent assays
Summary of the method: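 MICs determined by broth microdilution in MHB with 0.5–1 × 10^6 CFU/mL, peptides serially diluted in 0.2% BSA, 24 h at 37°C. Medium supplemented with physiological salts (150 mM NaCl, 4.5 mM KCl, 6 μM NH4Cl, 8 μM ZnCl2, 1 mM MgCl2, 2mM CaCl2, 4 μM FeCl3). MIC = lowest concentration inhibiting 95% growth (A492).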

[2] = test system: Listeria monocytogenes CGMCC 1.1075; format: cell-based; details: CGMCC 1.1075, 24 h
Summary of the method: as §1

S. typhimurium 7731 = format: cell-based, Salmonella typhimurium; details: 7731, 24 h
Summary of the method: as §1

S. typhimurium 14028 = format: cell-based, Salmonella typhimurium; details: 14028, 24 h
Summary of the method: as §1

MRSA 43300 = format: cell-based, methicillin-resistant S. aureus; details: 43300, 24 h
Summary of the method: as §1

B. subtilis 63501 = format: cell-based, Bacillus subtilis; details: 63501, 24 h
Summary of the method: as §1

S. aureus 25923 = format: cell-based, Staphylococcus aureus; details: 25923, 24 h
Summary of the method: as §1

S. aureus 29213 [3] = format: cell-based, Staphylococcus aureus; details: 29213, 24 h
Summary of the method: as §1

S. epidermidis 12228 = format: cell-based, Staphylococcus epidermidis; details: 12228, 24 h
Summary of the method: as §1

E. coli ATCC 25922 = experiment: Salt sensitivity assay (MIC); format: cell-based, Escherichia coli; details: for MIC, FeCl3: 4 μM FeCl3; for MIC, NH4Cl: 6 μM NH4Cl; for MIC, ZnCl2: 8 μM ZnCl2; for MIC, MgCl2: 1 mM MgCl2; for MIC, CaCl2: 2 mM CaCl2; for MIC, KCl: 4.5 mM KCl; for MIC, NaCl: 150 mM NaCl; for MIC, Control: no added salt, three independent assays
Summary of the method: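 The salt sensitivity of peptides was tested against E. coli ATCC 25922 using a modified NCCLS broth microdilution MIC method. Mid-log bacteria were diluted in MHB to 0.5–1 × 10^6 CFU mL^–1 and mixed in equal volumes with peptides serially diluted in 0.2% BSA in 96-well plates. Physiological salt was added where specified, and the assay was done three independent times.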

Gram-negative bacteria [4] = details: geometric mean of MBCs, 9 Gram-negative strains (Table 2)
S. pullorum 7913 = format: cell-based, Salmonella pullorum; details: 7913, 24 h
Summary of the method: as §1

P. aeruginosa 27853 = format: cell-based, Pseudomonas aeruginosa; details: 27853, 24 h
Summary of the method: as §1

Gram-positive bacteria [5] = details: for GM MIC: geometric mean of MICs, 7 Gram-positive strains (Table 2); for TI, Gram-positive bacteria: therapeutic index TI = MHC/GM MIC
Summary of the method: (§3)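 Broth microdilution adapted from NCCLS: mid-log bacteria diluted in MHB to 0.5–1 × 10^6 CFU mL^–1, mixed with peptides serially diluted in 0.2% BSA. After 24 h at 37°C, MIC taken as the lowest concentration inhibiting 95% of growth by absorbance at 492 nm. Assays repeated more than 3 times.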

Gram-negative bacteria [6] = details: for GM MIC: geometric mean of MICs, 9 Gram-negative strains (Table 2); for TI, Gram-negative bacteria: therapeutic index TI = MHC/GM MIC
Summary of the method: as §3

Gram-positive bacteria [7] = details: geometric mean of MBCs, 7 Gram-positive strains (Table 2)
[8] = test system: all of the tested bacterial strains; experiment: Geometric mean of MICs, all tested bacterial strains; format: cell-based; details: for GM, All: geometric mean of MICs across all tested strains; for TI, All: therapeutic index TI = MHC/GM MIC
Summary of the method: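 Mid-log bacteria at 0.5–1 × 10^6 CFU mL^–1 in MHB with peptides serially diluted in 0.2% BSA, 24 h at 37°C. MIC is the lowest concentration giving 95% growth inhibition by A492. MBC is the lowest giving >99.9% kill on agar subculture, and the GM is taken over all strains.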

E. faecalis 29212 = format: cell-based, Enterococcus faecalis; details: 29212, 24 h
Summary of the method: as §1

LLRLRRRLL-NH2 [L2]
>64 µM: MIC [2]
8 µM: MIC (E. coli 25922) | MIC (E. coli O78) | MIC (E. coli K99) | MIC, FeCl3 (E. coli ATCC 25922) | MIC, NH4Cl (E. coli ATCC 25922) | MIC, ZnCl2 (E. coli ATCC 25922) | MIC, Control (E. coli ATCC 25922)
7.66: TI, All [8]
52.50 µM: GM MIC (Gram-positive bacteria [5])
4 µM: MBC (B. subtilis 63501)
70.66 µM: GM MBC (Gram-positive bacteria [7])
16 µM: MBC (E. coli 25922) | MBC (E. coli O78) | MIC (E. coli UB1005) | MBC (E. coli K99) | MIC (E. coli K88) | MIC, MgCl2 (E. coli ATCC 25922) | MIC, KCl (E. coli ATCC 25922) | MIC (S. pullorum 7913)
21.77 µM: GM MIC (Gram-negative bacteria [6])
11.76: TI, Gram-negative bacteria (Gram-negative bacteria [6])
64 µM: MIC (S. typhimurium 7731) | MIC (S. typhimurium 14028) | MBC (MRSA 43300) | MIC (S. aureus 29213 [3])
33.42 µM: GM, All [8]
4.88: TI, Gram-positive bacteria (Gram-positive bacteria [5])
> 64 µM: MIC, FeCl3 (S. aureus 29213 [1]) | MIC, NH4Cl (S. aureus 29213 [1]) | MIC, ZnCl2 (S. aureus 29213 [1]) | MIC, MgCl2 (S. aureus 29213 [1]) | MIC, CaCl2 (S. aureus 29213 [1]) | MIC, KCl (S. aureus 29213 [1]) | MIC, NaCl (S. aureus 29213 [1]) | MIC, Control (S. aureus 29213 [1]) | MIC (S. aureus 25923) | MIC (S. epidermidis 12228) | MIC (P. aeruginosa 27853) | MIC (E. faecalis 29212)
40.32 µM: GM MBC (Gram-negative bacteria [4])
2 µM: MIC (B. subtilis 63501)
128 µM: MBC (S. typhimurium 7731) | MBC (S. typhimurium 14028) | MBC (S. aureus 29213 [3])
32 µM: MBC (E. coli UB1005) | MBC (E. coli K88) | MIC (MRSA 43300) | MIC, CaCl2 (E. coli ATCC 25922) | MIC, NaCl (E. coli ATCC 25922) | MBC (S. pullorum 7913)

LRRRRLLLL-NH2 [L11]
16 µM: MBC [2] | MBC (B. subtilis 63501)
64 µM: MIC (E. coli O78) | MBC (E. coli K88)
4.42: TI, Gram-positive bacteria (Gram-positive bacteria [5])
70.66 µM: GM MBC (Gram-positive bacteria [7])
> 64 µM: MIC (E. coli 25922) | MIC (E. coli K99) | MIC, FeCl3 (S. aureus 29213 [1]) | MIC, NH4Cl (S. aureus 29213 [1]) | MIC, ZnCl2 (S. aureus 29213 [1]) | MIC, MgCl2 (S. aureus 29213 [1]) | MIC, CaCl2 (S. aureus 29213 [1]) | MIC, KCl (S. aureus 29213 [1]) | MIC, NaCl (S. aureus 29213 [1]) | MIC, Control (S. aureus 29213 [1]) | MIC (S. typhimurium 7731) | MIC (S. typhimurium 14028) | MIC (S. aureus 25923) | MIC (S. epidermidis 12228) | MIC, FeCl3 (E. coli ATCC 25922) | MIC, NH4Cl (E. coli ATCC 25922) | MIC, ZnCl2 (E. coli ATCC 25922) | MIC, MgCl2 (E. coli ATCC 25922) | MIC, CaCl2 (E. coli ATCC 25922) | MIC, KCl (E. coli ATCC 25922) | MIC, NaCl (E. coli ATCC 25922) | MIC, Control (E. coli ATCC 25922) | MIC (P. aeruginosa 27853) | MIC (E. faecalis 29212)
2.52: TI, Gram-negative bacteria (Gram-negative bacteria [6])
>64 µM: MIC (E. coli UB1005) | MIC (MRSA 43300) | MIC (S. aureus 29213 [3]) | MIC (S. pullorum 7913)
8 µM: MIC [2] | MIC (B. subtilis 63501)
79.48 µM: GM, All [8]
118.51 µM: GM MBC (Gram-negative bacteria [4])
32 µM: MIC (E. coli K88)
57.97 µM: GM MIC (Gram-positive bacteria [5])
128 µM: MBC (E. coli O78)
3.22: TI, All [8]
101.59 µM: GM MIC (Gram-negative bacteria [6])

RLRLRRLLL-NH2 [L9]
128 µM: MBC (E. coli UB1005) | MBC (S. typhimurium 7731) | MBC (S. typhimurium 14028)
8 µM: MIC (B. subtilis 63501)
32 µM: MBC (E. coli 25922) | MIC (E. coli O78) | MBC (E. coli K99) | MBC (E. coli K88) | MBC [2] | MIC, NH4Cl (E. coli ATCC 25922) | MIC, MgCl2 (E. coli ATCC 25922) | MIC (S. pullorum 7913)
6.86: TI, Gram-negative bacteria (Gram-negative bacteria [6])
5.42: TI, All [8]
37.33 µM: GM MIC (Gram-negative bacteria [6])
64 µM: MBC (E. coli O78) | MIC (E. coli UB1005) | MIC (S. typhimurium 7731) | MIC (S. typhimurium 14028) | MBC (S. pullorum 7913)
69.12 µM: GM MBC (Gram-negative bacteria [4])
4.00: TI, Gram-positive bacteria (Gram-positive bacteria [5])
47.26 µM: GM, All [8]
16 µM: MIC (E. coli 25922) | MIC (E. coli K99) | MIC (E. coli K88) | MIC [2] | MBC (B. subtilis 63501) | MIC, FeCl3 (E. coli ATCC 25922) | MIC, ZnCl2 (E. coli ATCC 25922) | MIC, KCl (E. coli ATCC 25922) | MIC, Control (E. coli ATCC 25922)
> 64 µM: MIC, FeCl3 (S. aureus 29213 [1]) | MIC, NH4Cl (S. aureus 29213 [1]) | MIC, ZnCl2 (S. aureus 29213 [1]) | MIC, MgCl2 (S. aureus 29213 [1]) | MIC, CaCl2 (S. aureus 29213 [1]) | MIC, KCl (S. aureus 29213 [1]) | MIC, NaCl (S. aureus 29213 [1]) | MIC, Control (S. aureus 29213 [1]) | MIC (S. aureus 25923) | MIC (S. epidermidis 12228) | MIC, CaCl2 (E. coli ATCC 25922) | MIC, NaCl (E. coli ATCC 25922) | MIC (P. aeruginosa 27853) | MIC (E. faecalis 29212)
>64 µM: MIC (MRSA 43300) | MIC (S. aureus 29213 [3])
64.00 µM: GM MIC (Gram-positive bacteria [5])
78.02 µM: GM MBC (Gram-positive bacteria [7])
